# Laboratory results as given in patent publication US20250339409A1, “USES OF PAN BET INHIBITORS” (VYNE THERAPEUTICS INC., priority 2021, published 2025).
# Where “and” joins values, the source holds several entries; their conditions need not be identical. Identical values can stand only once.
# Test system: incisional skin wounds
# Assay: Incisional skin wound healing model (external and internal scoring, time to complete healing, body weight)
# Format: in vivo, female Hairless Skh-1 mice
# Parameters: key to Mean internal scores, Score presence tissue mass: 0 = no tissue mass, 1 = small, 2 = moderate, 3 = large; key to Global external score per day (mean): sum of the scores of 4 external wound parameters; MBWC D 16 − D 0, individual mouse: unit not given here
# Details: for Global external score per day (mean) / Mean score swelling per day / Mean score visibility (external) per day: BETi1 at 1%; for Mean score length (mm) per day / Mean score width (mm) per day: skin wound; for Body weight, individual mouse: in g (unit assumed)
# Procedure: Incisional wounds (10 mm) are made over the entire thickness of the skin (about 1 mm) on both flanks of nine female Hairless Skh-1 mice divided into 3 groups (n=3) according to body weight on D0. Formulations or hydroalcoholic gel are administered topically once daily starting immediately after the induction of skin wounds on DO until the complete healing of both wounds of each mouse, at the same time in the morning. The effects of treatment on wound healing with the formulation used containing one dose of the novel BETi, the vehicle of this new compound (negative control) and a hydroalcoholic gel preventing wound healing (positive control), is evaluated by the daily scoring of the healing process externally. The scoring is based on the daily measurement of the length and width, swelling of each induced skin wound from DO until complete healing, the determination of the time required for complete healing of each of induced skin wounds, and after complete healing of both wounds of a same mouse, by the scoring of the healing process internally by evaluation of the visibility of the scar, the presence of a tissue mass (collagen+elastin) under the scar and the level of vascularization of the scar.
# Mice are weighed 3 times per week from the day of induction of skin wounds (D0) until the complete healing of both wounds of each mouse and before sacrifice. The viability and the well being of mice of each cage is checked and recorded daily.
# The scoring takes into account the following 4 parameters: The length of the skin wounds measured with a ruler.
# The width of the skin wounds with the following scoring grid: • 0=skin wound completely closed, • 1=skin wound almost completely closed, • 2=skin wound moderately closed, • 3=skin wound wide open.
# The swelling of the skin wounds with the following scoring grid: • 0=skin wound no or no longer swollen, • 1=skin wound slightly swollen, • 2=skin wound moderately swollen, • 3=skin wound highly swollen.
# The visibility of the skin wounds with the following scoring grid: • 0=skin wound no or no longer visible, • 1=skin wound slightly visible, • 2=skin wound moderately visible, • 3=skin wound highly visible.
# The sum of the scores of these 4 parameters gives the Global External Score of Wound Healing (GESWH). The time required for complete healing of each induced skin wound is also determined.
# After the complete healing of both skin wounds of each mouse, mice are sacrificed, and the scoring of the healing process internally is performed for each wound and takes into account the following 3 parameters: • visibility of the scar with the following scoring grid: • 0=scar highly visible • 1=scar moderately visible, • 2=scar slightly visible • 3=scar non-visible.
# The presence of a tissue mass (collagen+elastin) under the scar with the following scoring grid: • 0=no tissue mass present, • 1=small tissue mass present, • 2=moderate tissue mass present, • 3=large tissue mass present.
# The level of vascularization of the scar with the following scoring grid: • 0=important vascularization of the scar, • 1=moderate vascularization of the scar, • 2=low vascularization of the scar, • 3=very little vascularization of the scar.
# The sum of the scores of these 3 parameters gives the Global Internal Score of Wound Healing (GISWH). A macroscopic observation of all organs of the abdominal and thoracic cavities is performed on all mice. Any other organ with abnormal shape, size or colour is listed.
# The body weight, mean body weight change (MBWC) of mice, the external scores of the length, width, swelling and visibility of skin wounds as well as the Global External Score of Wound Healing (GESWH), the time required for complete healing of skin wounds, and the internal scores of the visibility, the presence of a tissue mass and the vascularization of scars as well as the Global Interna Score of Wound Healing (GISWH) are analyzed at the end of the experimentation. […]
structure (smiles),measurement,setting,value
Cn1cc(-c2cccc(O)c2Oc2ccccc2)c2cc[nH]c2c1=O [BETi1],Global external score per day (mean),D 0,15.00
same,Mean score swelling per day,D 0,0.00
same,Mean score visibility (external) per day,D 0,3.00
same,Global external score per day (mean),D 1,16.33
same,Mean score swelling per day,D 1,1.33
same,Mean score visibility (external) per day,D 1,3.00
same,Global external score per day (mean),D 2,17.67
same,Mean score swelling per day,D 2,2.00
same,Mean score visibility (external) per day,D 2,3.00
same,Global external score per day (mean),D 3,18.17
same,Mean score swelling per day,D 3,2.00
same,Mean score visibility (external) per day,D 3,3.00
same,Global external score per day (mean),D 4,17.50
same,Mean score swelling per day,D 4,2.17
same,Mean score visibility (external) per day,D 4,3.00
same,Global external score per day (mean),D 5,15.00
same,Mean score swelling per day,D 5,2.17
same,Mean score visibility (external) per day,D 5,3.00
same,Global external score per day (mean),D 6,14.17
same,Mean score swelling per day,D 6,2.17
same,Mean score visibility (external) per day,D 6,3.00
same,Global external score per day (mean),D 7,13.67
same,Mean score swelling per day,D 7,2.50
same,Mean score visibility (external) per day,D 7,3.00
same,Global external score per day (mean),D 8,13.50
same,Mean score swelling per day,D 8,2.33
same,Mean score visibility (external) per day,D 8,2.83
same,Global external score per day (mean),D 9,13.33
same,Mean score swelling per day,D 9,2.17
same,Mean score visibility (external) per day,D 9,2.83
same,Global external score per day (mean),D 10,12.00
same,Mean score swelling per day,D 10,2.17
same,Mean score visibility (external) per day,D 10,2.83
same,Global external score per day (mean),D 11,10.33
same,Mean score swelling per day,D 11,1.83
same,Mean score visibility (external) per day,D 11,2.67
same,Global external score per day (mean),D 12,8.00
same,Mean score swelling per day,D 12,1.67
same,Mean score visibility (external) per day,D 12,2.17
same,Global external score per day (mean),D 13,5.17
same,Mean score swelling per day,D 13,1.67
same,Mean score visibility (external) per day,D 13,1.17
same,Global external score per day (mean),D 14,4.50
same,Mean score swelling per day,D 14,1.67
same,Mean score visibility (external) per day,D 14,0.83
same,Global external score per day (mean),D 15,3.00
same,Mean score swelling per day,D 15,1.50
same,Mean score visibility (external) per day,D 15,0.50
same,Global external score per day (mean),D 16,2.17
same,Mean score swelling per day,D 16,1.17
same,Mean score visibility (external) per day,D 16,0.33
same,Global external score per day (mean),D 17,0.50
same,Mean score swelling per day,D 17,0.50
same,Mean score visibility (external) per day,D 17,0.00
same,"Mean internal scores, Global internal score",after complete healing,2.00
same,"Mean internal scores, Score presence tissue mass",after complete healing,0.50
same,"Mean internal scores, Score vascularization",after complete healing,1.33
same,"Mean internal scores, Score visibility scar",after complete healing,0.17
same,global external lesion severity score,"compared to hydroalcoholic gel, beginning at treatment day 5",statistically significant decrease (improvement) in global external lesion severity score
same,complete healing earlier compared to hydroalcoholic gel,incisional lesions,approximately 5 days
same,mean time to heal,incisional lesions,15.5 days
same,"Mean time for complete wound healing, Day for complete healing","incisional wounds, once daily topical",15.50 days
same,swelling at wound edges,"significantly different on Days 15, 16 and 17 compared to vehicle and hydroalcoholic gel",rapidly reduced the swelling at wound edges
same,Mean score length (mm) per day,D 0,10.00 mm
same,Mean score width (mm) per day,D 0,2.00 mm
same,Mean score length (mm) per day,D 1,10.00 mm
same,Mean score width (mm) per day,D 1,2.00 mm
same,Mean score length (mm) per day,D 2,10.00 mm
same,Mean score width (mm) per day,D 2,2.67 mm
same,Mean score length (mm) per day,D 3,10.00 mm
same,Mean score width (mm) per day,D 3,2.83 mm
same,Mean score length (mm) per day,D 4,9.33 mm
same,Mean score width (mm) per day,D 4,3.00 mm
same,Mean score length (mm) per day,D 5,7.50 mm
same,Mean score width (mm) per day,D 5,2.33 mm
same,Mean score length (mm) per day,D 6,6.50 mm
same,Mean score width (mm) per day,D 6,2.50 mm
same,Mean score length (mm) per day,D 7,5.67 mm
same,Mean score width (mm) per day,D 7,2.50 mm
same,Mean score length (mm) per day,D 8,5.67 mm
same,Mean score width (mm) per day,D 8,2.67 mm
same,Mean score length (mm) per day,D 9,5.50 mm
same,Mean score width (mm) per day,D 9,2.83 mm
same,Mean score length (mm) per day,D 10,4.83 mm
same,Mean score width (mm) per day,D 10,2.17 mm
same,Mean score length (mm) per day,D 11,3.83 mm
same,Mean score width (mm) per day,D 11,2.00 mm
same,Mean score length (mm) per day,D 12,2.67 mm
same,Mean score width (mm) per day,D 12,1.50 mm
same,Mean score length (mm) per day,D 13,1.50 mm
same,Mean score width (mm) per day,D 13,0.83 mm
same,Mean score length (mm) per day,D 14,1.17 mm
same,Mean score width (mm) per day,D 14,0.83 mm
same,Mean score length (mm) per day,D 15,0.50 mm
same,Mean score width (mm) per day,D 15,0.50 mm
same,Mean score length (mm) per day,D 16,0.33 mm
same,Mean score width (mm) per day,D 16,0.33 mm
same,Mean score length (mm) per day,D 17,0.00 mm
same,Mean score width (mm) per day,D 17,0.00 mm
same,tolerability within the lesion sites and in general,throughout the treatment period,appeared to be well-tolerated
same,Mean body weight (gram) per day,"wound model, D 0",26.61 gram
same,"Body weight, individual mouse","wound model, D 0, listed as BETi11.0%",25.00 and 28.64 and 26.19
same,Mean body weight (gram) per day,"wound model, D 2",25.53 gram
same,Mean body weight (gram) per day,"wound model, D 4",25.70 gram
same,Mean body weight (gram) per day,"wound model, D 7",26.10 gram
same,Mean body weight (gram) per day,"wound model, D 9",26.85 gram
same,Mean body weight (gram) per day,"wound model, D 11",27.01 gram
same,Mean body weight (gram) per day,"wound model, D 13",26.88 gram
same,Mean body weight (gram) per day,"wound model, D 16",27.33 gram
same,"Body weight, individual mouse","wound model, D 16, listed as BETi11.0%",25.10 and 28.47 and 28.43
same,"MBWC D 16 − D 0, individual mouse","wound model, listed as BETi11.0%",0.10 and −0.17 and 2.24
